Measured values from paper PMC10122656, “Siglec-6 mediates the uptake of extracellular vesicles through a noncanonical glycolipid binding pocket” (Nature Communications, 2023).
Several values for one entry are separate records, joined by “and”; a condition that tells them apart may be missing. Equal entries are not always repeated.

How the values were obtained:
WT Siglec-6 CHO cells = molecular target: T1, WT Siglec-6 CHO cells (Homo sapiens, UniProt O43699); test: Cell assay (liposome/EV binding, flow cytometry);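 as to liposome binding, fluorescence signal (replicates): AF647 fluorescence intensity from 0.1 mol% AF647–PEG45–DSPE in liposomes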; format: cell-based; conditions: for nGLL binding to WT Siglec-6 CHO cells (in words): 3 mol% nGL in liposomes; for Binding of nGL liposomes relative to liposomes formulated with 3 mol% nGL 5 (Fig. 3g): WT Siglec-6 CHO cells; for Binding of nGL liposomes relative to liposomes formulated with 3 mol% nGL 5 (Fig. 3g) / Binding of liposomes to WT Siglec-6 CHO cells relative to liposomes formulated without a ligand (Fig. 3c): replicates; for Binding of liposomes to WT Siglec-6 CHO cells relative to liposomes formulated without a ligand (Fig. 3c): 3 mol% glycolipid, Cer = native ganglioside, Amide = amide-linked nGL
T1 construct: expressed in transfected cells
Procedure: (§1) Stock lipids (DSPC, Cholesterol, PEG45–DSPE) solutions were prepared by solvating the lipids in chloroform. An appropriate volume of each lipid solution was transferred to a glass test tube to reach the desired mol% of the component. The chloroform was then removed under N2 gas to yield a lipid thin film. Once dry, 100 µL of DMSO was added to the lipid-containing test tube and then the functional lipids (ganglioside, AF647–PEG45–DSPE, Siglec ligand–PEG45–DSPE, pHrodo–PEG45–DSPE, NGL) was added from their respect DMSO stock solution. The lipid mixture was then stored at −80 °C until completely frozen at which point excess DMSO was removed via lyophilization. Dry lipids were then stored at −80 °C until they were extruded. Lipid suppliers can be found in Supplementary Table 4.
(§2) Dry lipids were then hydrated in 1 mL of PBS. The lipids were then sonicated in a bath sonicator in a cycle of 1 min on, 5 min off for a total of five cycles. Liposomes were then extruded using an Avanti mini extruder first using an 800 nm filter and then a 100 nm filter yielding liposomes that were 130 ± 35 nm (Supplementary Table 5) measured using a Malvern Panalytical Zetasizer Nano S. Liposomes were stored at 4 °C.
(§3) 200,000 cells/well were plated into a 96-well U-bottom microplate and centrifuged at 300 × g for 5 min. The cells were then resuspended in 50 µL of 50 µM liposome/50 µg/mL (protein concentration) of EV solution in DMEM F12 5% FBS and incubated at 37 °C for 30 min. Excess liposomes were then removed via centrifuged at 300 × g for 5 min followed by washing the cells with FACS solution. The cells were then resuspended in (1:250 V/V) anti-Siglec-flow buffer (1% V/V FBS, 500 µM, EDTA Hank’s Balanced Salt Solution pH 7.4), solution and left to rest on ice for 30 min. The cells were then centrifuged again at 300 × g for 5 min and the cells were resuspended in FACS buffer solution and were then ready for analysis by flow cytometry. Information regarding antibody clone, catalog number supplier, label isotype, and dilution can be found in Supplementary Table 6. The Siglec-positive cells were gated on for liposome-binding analysis (Supplementary Fig. 1b).
(§4) Flow cytometry measurements were collected on a 5-laser Fortessa X-20 (BD Bioscience). All the resulting data were analyzed using FlowJo (10.5.3) software (BD Biosciences).

R122A Siglec-6 CHO cells = molecular target: T2, R122A Siglec-6 CHO cells (Homo sapiens, UniProt O43699, R122A); test: Cell assay (liposome/EV binding, flow cytometry);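 as to liposome binding, fluorescence signal (replicates): AF647 fluorescence intensity from 0.1 mol% AF647–PEG45–DSPE in liposomes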; format: cell-based; conditions: for Binding of nGL liposomes relative to liposomes formulated with 3 mol% nGL 5 (Fig. 3g): R122A Siglec-6 CHO cells, replicates; for liposome binding, fluorescence signal (replicates): sheet Figure S18b, cells not given; for nGLL binding to R122A Siglec-6 CHO cells (in words): 3 mol% nGL in liposomes, compared to 3 mol% 5
T2 construct: expressed in transfected cells
Procedure: as §1, §2, §3, §4

Siglec-1 fragment = Siglec-1 fragment (Homo sapiens, UniProt Q9BZZ2); test: Direct ESI-MS binding assay; conditions: oligosaccharide moiety of the ganglioside; 3.6 µM Siglec-1 fragment, 20-140 µM ligand; table gives replicates, text mean ± SD; read-out: dissociation constant (Kd) of soluble Siglec-1 to the ganglioside oligosaccharide
Procedure: The affinities of ganglioside (GM1, GM2, GM3, and GD1a) oligosaccharides (L) for the Siglec-1 fragment were measured by the direct ESI-MS assay[1]. A reference protein (Pref) was added to the ESI solutions in order to correct mass spectra for any nonspecific binding that occurred during the ESI process[2]. […] Direct ESI-MS measurements were performed with nanoflow ESI in positive ion mode (voltage ~1 kV) on a Q-Exactive Orbitrap mass spectrometer (Thermo Fisher Scientific). Automatic gain control (AGC) target, the maximum inject time, capillary temperature, and S-lens RF level were set to 1 × 10^6, 100 ms, 150, and 100 °C, respectively. The resolution was 17,500 at m/z 200. Data acquisition and processing were carried out using Xcalibur (Thermo Fisher, version 4.1).

WT Siglec-1 CHO cells = molecular target: T3, WT Siglec-1 CHO cells (Homo sapiens, UniProt Q9BZZ2); test: Cell assay (liposome/EV binding, flow cytometry); format: cell-based; set-up: GM1 liposome binding to Siglec-1 CHO cells, flow cytometry (Fig. 1b) / Binding of liposomes with increasing ganglioside content against Siglec-1 CHO cells (Fig. 1c) / Liposome binding to Siglec-1-expressing CHO cells in the cell assay (Fig. 1f): unit not given here
T3 construct: expressed in transfected cells
Procedure: as §1, §2, §3, §4

[1] = system: untransfected (UT) CHO cells; test: Cell assay (liposome/EV binding, flow cytometry); format: cell-based, Chinese Hamster; conditions: sheet Figure S22b, CHO;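 also: AF647 fluorescence intensity from 0.1 mol% AF647–PEG45–DSPE in liposomes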
Procedure: as §1, §2, §3, §4

[2] = sheet Figure S18a, cells not given
[3] = sheet Figure S17, cells not given, three experiments, each with its own Naked control

T1 sequence (O43699 27-453): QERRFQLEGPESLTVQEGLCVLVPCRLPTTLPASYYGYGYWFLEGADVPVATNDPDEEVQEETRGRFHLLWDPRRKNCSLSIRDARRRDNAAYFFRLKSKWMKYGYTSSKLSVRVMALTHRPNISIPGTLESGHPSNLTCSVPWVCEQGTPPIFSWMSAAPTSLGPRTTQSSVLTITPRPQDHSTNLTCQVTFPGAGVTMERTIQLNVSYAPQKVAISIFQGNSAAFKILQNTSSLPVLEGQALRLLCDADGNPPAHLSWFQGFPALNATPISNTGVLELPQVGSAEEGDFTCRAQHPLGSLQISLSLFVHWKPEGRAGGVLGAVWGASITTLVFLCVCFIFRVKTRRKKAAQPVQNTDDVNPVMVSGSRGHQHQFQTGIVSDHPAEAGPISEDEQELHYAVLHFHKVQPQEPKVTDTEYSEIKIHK
T3 sequence (Q9BZZ2 20-1709): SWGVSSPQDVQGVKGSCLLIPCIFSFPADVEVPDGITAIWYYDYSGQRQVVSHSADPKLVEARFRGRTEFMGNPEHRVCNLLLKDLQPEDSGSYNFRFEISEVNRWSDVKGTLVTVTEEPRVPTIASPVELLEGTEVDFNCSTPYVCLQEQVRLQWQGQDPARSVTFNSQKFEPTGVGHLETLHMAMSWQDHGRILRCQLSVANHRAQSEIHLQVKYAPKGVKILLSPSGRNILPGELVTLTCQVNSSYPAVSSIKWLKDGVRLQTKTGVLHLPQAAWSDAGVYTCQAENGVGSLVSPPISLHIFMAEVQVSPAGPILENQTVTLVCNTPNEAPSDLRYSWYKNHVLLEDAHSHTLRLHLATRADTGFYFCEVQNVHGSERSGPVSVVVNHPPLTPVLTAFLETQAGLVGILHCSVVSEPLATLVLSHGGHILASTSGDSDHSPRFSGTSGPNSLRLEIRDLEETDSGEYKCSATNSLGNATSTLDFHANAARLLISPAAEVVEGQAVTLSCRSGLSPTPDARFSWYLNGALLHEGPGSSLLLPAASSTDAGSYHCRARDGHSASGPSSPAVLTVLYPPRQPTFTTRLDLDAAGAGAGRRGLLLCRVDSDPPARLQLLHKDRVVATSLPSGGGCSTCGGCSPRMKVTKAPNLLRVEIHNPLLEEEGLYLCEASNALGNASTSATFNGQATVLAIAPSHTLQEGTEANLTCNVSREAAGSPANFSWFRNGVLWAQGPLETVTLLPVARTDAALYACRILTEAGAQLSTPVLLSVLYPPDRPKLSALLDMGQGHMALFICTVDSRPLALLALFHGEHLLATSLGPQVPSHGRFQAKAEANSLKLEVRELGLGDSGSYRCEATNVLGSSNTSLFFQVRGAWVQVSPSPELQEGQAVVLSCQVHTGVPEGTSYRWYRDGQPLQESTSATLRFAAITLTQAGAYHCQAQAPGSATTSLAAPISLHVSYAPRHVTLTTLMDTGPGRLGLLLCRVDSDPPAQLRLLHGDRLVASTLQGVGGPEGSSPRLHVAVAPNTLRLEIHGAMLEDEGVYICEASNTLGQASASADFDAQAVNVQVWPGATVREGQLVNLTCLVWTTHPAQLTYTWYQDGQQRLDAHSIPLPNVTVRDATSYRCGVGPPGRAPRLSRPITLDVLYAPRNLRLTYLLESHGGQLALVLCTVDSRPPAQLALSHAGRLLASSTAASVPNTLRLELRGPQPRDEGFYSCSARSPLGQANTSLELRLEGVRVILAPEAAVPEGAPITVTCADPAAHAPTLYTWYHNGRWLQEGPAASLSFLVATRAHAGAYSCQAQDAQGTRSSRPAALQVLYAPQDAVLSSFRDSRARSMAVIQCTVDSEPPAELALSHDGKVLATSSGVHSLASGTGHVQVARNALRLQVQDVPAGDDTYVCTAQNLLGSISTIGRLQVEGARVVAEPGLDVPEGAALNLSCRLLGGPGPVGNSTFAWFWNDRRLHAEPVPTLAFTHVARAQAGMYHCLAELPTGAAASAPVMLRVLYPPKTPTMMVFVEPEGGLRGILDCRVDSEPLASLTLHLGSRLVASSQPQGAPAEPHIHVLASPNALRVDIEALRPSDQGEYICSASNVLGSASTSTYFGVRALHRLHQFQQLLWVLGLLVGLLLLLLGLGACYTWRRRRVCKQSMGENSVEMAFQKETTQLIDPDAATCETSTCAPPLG
T2 sequence (O43699 27-453 R122A): as the sequence (O43699 27-453) above, with R96A counted along it
Chain of Siglec-1 fragment (Q9BZZ2 20-136 limits assumed): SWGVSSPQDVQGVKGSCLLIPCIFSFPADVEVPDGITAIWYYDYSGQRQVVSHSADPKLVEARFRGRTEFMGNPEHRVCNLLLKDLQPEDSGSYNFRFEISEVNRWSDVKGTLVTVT

Row | Compound | nGLL binding to WT Siglec-6 CHO cells (in words) (WT Siglec-6 CHO cells) | Binding of nGL liposomes relative to liposomes formulated with 3 mol% nGL 5 (Fig. 3g) (WT Siglec-6 CHO cells) | liposome binding, fluorescence signal (replicates) (WT Siglec-6 CHO cells; [2]) | Binding of nGL liposomes relative to liposomes formulated with 3 mol% nGL 5 (Fig. 3g) (R122A Siglec-6 CHO cells) | liposome binding, fluorescence signal (replicates) (R122A Siglec-6 CHO cells) | further results
1 | CCCCCCCCCCCCCCCCOCC(COCCCCCCCCCCCCCCCC)OCc1cn(CCO[C@@H]2O[C@H](CO)[C@@H](O[C@@H]3O[C@H](CO)[C@H](O)[C@H](O[C@]4(C(=O)O)C[C@H](O)[C@@H](NC(C)=O)[C@H]([C@H](O)[C@H](O)CO)O4)[C@H]3O)[C@H](O)[C@H]2NC(C)=O)nn1 [nGL 9] | modestly lower | 0.77 and 0.6 and 0.59 and 0.63 | 2520 and 2097 and 2058 and 2158 | 0.83 and 0.93 and 0.81 and 1.01 | 1939 and 2127 and 1908 and 2268 | 
2 | CC(=O)N[C@H]1[C@H]([C@H](O)[C@H](O)CO)O[C@@](O[C@H]2[C@@H](O)[C@@H](CO)O[C@@H](O[C@H]3[C@H](O)[C@@H](O)C(O)O[C@@H]3CO)[C@@H]2O)(C(=O)O)C[C@@H]1O (stereo partly drawn) [GM3 trisaccharide, α-Neup5Ac-(2 → 3)-β-lactose] |  |  |  |  |  | Kd (Siglec-1 fragment): 500 ± 100 µM
3 | CCCCCCCCCCCCCCCCOCC(COCCCCCCCCCCCCCCCC)OCc1cn(CCO[C@@H]2O[C@H](CO)[C@@H](O[C@@H]3O[C@H](CO[C@]4(C(=O)O)C[C@H](O)[C@@H](NC(C)=O)[C@H]([C@H](O)[C@H](O)CO)O4)[C@H](O)[C@H](O)[C@H]3O)[C@H](O)[C@H]2NC(C)=O)nn1 [nGL 10] | bound minimally | 0.19 and 0.16 and 0.21 | 1069 and 1003 and 987 and 1125 | 0.23 and 0.15 and 0.27 | 899 and 894 and 758 and 962 | nGLL binding to R122A Siglec-6 CHO cells (in words) (R122A Siglec-6 CHO cells): bound minimally
4 | CCCCCCCCCCCCCCCCOCC(COCCCCCCCCCCCCCCCC)OCC(=O)NCCO[C@@H]1O[C@H](CO)[C@@H](O[C@@H]2O[C@H](CO)[C@H](O)[C@H](O[C@]3(C(=O)O)C[C@H](O)[C@@H](NC(C)=O)[C@H]([C@H](O)[C@H](O)CO)O3)[C@H]2O)[C@H](O)[C@H]1O [nGL 4] |  |  |  |  |  | Binding of liposomes to WT Siglec-6 CHO cells relative to liposomes formulated without a ligand (Fig. 3c) (WT Siglec-6 CHO cells; listed as GM3 Amide): 2.34 and 2.47 and 2.38 and 2.75; liposome binding, fluorescence signal (replicates) (WT Siglec-6 CHO cells; [3]): 713 and 752 and 727 and 839
5 | asialo GM1 [GA1] |  |  |  |  |  | Liposome binding to Siglec-1-expressing CHO cells in the cell assay (Fig. 1f) (WT Siglec-1 CHO cells; 3% glycolipid in liposome, replicates): 71 and 68; binding to WT Siglec-1 CHO cells (in words) (WT Siglec-1 CHO cells; cell assay): did not mediate binding; liposome binding, fluorescence signal (replicates) (WT Siglec-6 CHO cells; sheet Figure S22b, Sig-6): 66 and 69 and 61 and 64; liposome binding, fluorescence signal (replicates) [1]: 60 and 57 and 55 and 52
6 | CCCCCCCCCCCCCCCCOCC(COCCCCCCCCCCCCCCCC)OCc1cn(CCO[C@@H]2O[C@H](CO)[C@@H](O[C@@H]3O[C@H](CO[C@]4(C(=O)O)C[C@H](O)[C@@H](NC(C)=O)[C@H]([C@H](O)[C@H](O)CO)O4)[C@H](O)[C@H](O)[C@H]3O)[C@H](O)[C@H]2O)nn1 [nGL 8] | bound minimally | 0.05 and 0.03 and 0.06 and 0.07 | 720 and 670 and 748 and 768 | 0.06 and 0.08 and 0.07 | 599 and 635 and 605 | nGLL binding to R122A Siglec-6 CHO cells (in words) (R122A Siglec-6 CHO cells): bound minimally
7 | CCCCCCCCCCCCCCCCOCC(COCCCCCCCCCCCCCCCC)OCC(=O)NCCO[C@@H]1O[C@H](CO)[C@@H](O[C@@H]2O[C@H](CO)[C@H](O[C@@H]3O[C@H](CO)[C@H](O)[C@H](O[C@@H]4O[C@H](CO)[C@H](O)[C@H](O)[C@H]4O)[C@H]3NC(C)=O)[C@H](O[C@]3(C(=O)O)C[C@H](O)[C@@H](NC(C)=O)[C@H]([C@H](O)[C@H](O)CO)O3)[C@H]2O)[C@H](O)[C@H]1O [nGL 3] | bound minimally |  |  |  |  | Binding of liposomes to WT Siglec-6 CHO cells relative to liposomes formulated without a ligand (Fig. 3c) (WT Siglec-6 CHO cells; listed as GM1 Amide): 0.68 and 0.67 and 0.66 and 0.75; liposome binding, fluorescence signal (replicates) (WT Siglec-6 CHO cells; [3]): 541 and 535 and 525 and 596
